Test results published in the supplement of paper PMC12317010.
Where a name gives a salt, the structure may show the parent alone. One block for each compound: values may come before it.

Assay: collision cross section in nitrogen (drift tube, single-field); higher = larger gas-phase ion size
[1] = ion type: [M+Na], ion source: ESI, ion mode: Positive
[2] = ion type: [M+H], ion source: APCI, ion mode: Positive
[3] = ion type: [M+H], ion source: ESI, ion mode: Positive
[4] = ion type: [M-H], ion source: ESI, ion mode: Negative
[5] = ion source: ESI, ion mode: Positive, ion type: [M]+ (permanent cation)
[6] = ion type: [M+], ion source: APCI, ion mode: Positive
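Note: chemical standards at 10 µM analysed by drift tube IMS-QTOF MS in about 3.95 torr nitrogen, mean of duplicate injections differing ≤1%, mass error below 10 ppm.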

collision cross section in nitrogen [2]: 204.7 Å² | collision cross section in nitrogen [3]: 203.3 Å² | collision cross section in nitrogen [1]: 226.8 Å² | collision cross section in nitrogen [4]: 198.1 Å²
SMILES: CC(C)(C)NC(=O)[C@H]1CC[C@H]2[C@@H]3CC[C@H]4NC(=O)C=C[C@]4(C)[C@H]3CC[C@]12C [Finasteride]

collision cross section in nitrogen [2]: 185.2 Å² | collision cross section in nitrogen [3]: 185.6 Å² | collision cross section in nitrogen [1]: 196.9 Å²
SMILES: COc1cccc(-c2ccc(/C=C\CN3CCCCCC3)cc2Cl)c1

collision cross section in nitrogen [4]: 151.3 Å²
SMILES: CCCCCCCCOS(=O)(=O)O [Sodium octyl sulfate]

collision cross section in nitrogen [4]: 168.4 Å²
SMILES: CCCCCC/C=C\CCCCCCCC(=O)O [(Z)-Hexadec-9-enoic acid]

collision cross section in nitrogen [4]: 130.9 Å²
SMILES: O=Cc1ccccc1S(=O)(=O)O [Sodium 2-formylbenzenesulfonate]

collision cross section in nitrogen [4]: 156.3 Å²
SMILES: O=S(=O)(O)c1cccc2c(S(=O)(=O)O)cccc12 [1,5-Naphthalenedisulfonic acid, disodium salt hydrate]

collision cross section in nitrogen [2]: 146.6 Å²
SMILES: CC(C)c1cccc(C(C)C)c1N [2,6-Diisopropylaniline]

collision cross section in nitrogen [2]: 153.5 Å²
SMILES: O=C1Cc2ccccc2N1c1c(Cl)cccc1Cl [1-(2,6-Dichlorophenyl)-2-indolinone]

collision cross section in nitrogen [1]: 231.4 Å²
SMILES: CCCCCCCC(=O)OCC(COC(=O)CCCCCCC)OC(=O)CCCCCCC [Tricaprylin]

collision cross section in nitrogen [4]: 170.2 Å²
SMILES: O=C(Nc1cccc([N+](=O)[O-])c1)c1cc2ccccc2cc1O [3-Hydroxy-N-(3-nitrophenyl)naphthalene-2-carboxamide]

collision cross section in nitrogen [4]: 159.9 Å²
SMILES: O=C(Nc1ccccc1)c1cc([N+](=O)[O-])ccc1Cl [2-Chloro-5-nitro-N-phenylbenzamide]

collision cross section in nitrogen [3]: 123.5 Å²
SMILES: Cc1ccc(N)cc1O [5-Amino-2-methylphenol]

collision cross section in nitrogen (ion source: APCI, ion mode: Positive, ion type: [M]+ (permanent cation)): 167.2 Å² | collision cross section in nitrogen [5]: 168 Å²
SMILES: CCCC[N+](CCCC)(CCCC)CCCC [Tetrabutylammonium bromide]

collision cross section in nitrogen [4]: 142.8 Å²
SMILES: O=S(=O)(O)c1cc(Cl)c(Cl)cc1Cl [2,4,5-Trichlorobenzenesulfonic acid]

The remaining lines, values behind:

SMILES: CN(C)c1ccccc1 [N,N-Dimethylaniline]
collision cross section in nitrogen [1]: 123.8 Å²

SMILES: c1ccc(CN(Cc2ccccc2)Cc2ccccc2)cc1 [Tribenzylamine]
collision cross section in nitrogen [2]: 169.1 Å² | collision cross section in nitrogen [3]: 169.2 Å²

SMILES: C[N+](C)(C)Cc1ccccc1 [Benzyltrimethylammonium hydroxide]
collision cross section in nitrogen [5]: 131.3 Å²

SMILES: Oc1c(Br)cc(Br)cc1Br [2,4,6-Tribromophenol]
collision cross section in nitrogen [4]: 135.2 Å²

SMILES: CC(C)(C)c1ccc(CSc2cnn(C(C)(C)C)c(=O)c2Cl)cc1 [Pyridaben]
collision cross section in nitrogen [1]: 208.8 Å²

SMILES: CC(C)N1C(=O)c2ccccc2NS1(=O)=O [Bentazone]
collision cross section in nitrogen [4]: 146.9 Å²

SMILES: Cc1cc(S(=O)(=O)O)ccc1N=Nc1c(O)ccc2ccccc12 [C.I. Acid Orange 8, monosodium salt]
collision cross section in nitrogen [4]: 187.1 Å²

SMILES: CNC(=N[N+](=O)[O-])NCC1CCOC1 (stereo unspecified) [1-Methyl-2-nitro-3-((tetrahydrofuran-3-yl)methyl)guanidine]
collision cross section in nitrogen [1]: 150.6 Å² | collision cross section in nitrogen [4]: 148.7 Å²

SMILES: O=C(Nc1ccccc1-c1ccc(Cl)cc1)c1cccnc1Cl [Boscalid]
collision cross section in nitrogen [3]: 175.5 Å² | collision cross section in nitrogen [4]: 177.1 Å²

SMILES: Cc1cc(-c2ccc(N)c(C)c2)ccc1N [3,3'-Dimethylbenzidine dihydrochloride]
collision cross section in nitrogen [2]: 151.9 Å² | collision cross section in nitrogen [3]: 166.2 Å² | collision cross section in nitrogen [6]: 150.7 Å²

SMILES: CSc1ccc(C(=O)C(C)(C)N2CCOCC2)cc1 [2-Methyl-4'-(methylthio)-2-morpholinopropiophenone]
collision cross section in nitrogen [2]: 166.4 Å² | collision cross section in nitrogen [3]: 166.7 Å²

SMILES: c1ccc2c(c1)sc1ccccc12 [Dibenzothiophene]
collision cross section in nitrogen [6]: 130.2 Å²

SMILES: CCCCOCCOCCOCCO [2-[2-(2-Butoxyethoxy)ethoxy]ethanol]
collision cross section in nitrogen [1]: 150.9 Å²

SMILES: CC1=C(C(=O)Nc2ccccc2)S(=O)(=O)CCO1 [Oxycarboxin]
collision cross section in nitrogen [1]: 168.9 Å²

SMILES: Oc1cccc(-c2ccccc2)c1 [3-Phenylphenol]
collision cross section in nitrogen [4]: 140 Å²
